Patent publication US20250041290A1, “USE OF N-(3-(4-(3-(DIISOBUTYLAMINO)PROPYL)PIPERAZIN-1-YL)PROPYL)-1H-BENZO[d]IMIDAZOL-2-AMINE SUCCINATE SALTS AND SOLVATES THEREOF FOR THE TREATMENT OF MOTOR NEURON DISEASES AND NEUROMUSCULAR JUNCTION DISORDERS” (ALZPROTECT, priority 2021, published 2025)

Assays:
[1] = tested on: SOD1^G93A Tg rat spinal cord motor neurons; assay: Primary culture of SOD1^G93A Tg rat spinal cord motor neurons injured with glutamate, 48 h incubation; assay type: cell-based; conditions: glutamate 5 μM 20 min; for Protective effects of reference drugs after glutamate injury: concentration not given
Protocol: Female (Sprague Dawley, Janvier) were mated at Neuro-Sys (Gardanne, France) with Tg SOD1^G93A male rats (Taconic Bioscience, US). Pregnant females of 14 days of gestation were used for the culture. The day of the dissection, a piece of each embryo head (˜3 mm^3) was placed in a 2 mL DNase free tube with a new scalpel. The DNA was extracted with the SYBR Green Extract-N-Amp tissue PCR kit (Sigma Aldrich). Briefly, 120 μL of extraction solution was put on each piece of embryo heads. Then, they were incubated for 10 min at room temperature. At the end of this incubation period, the heads were incubated for 5 min at 95° C. Immediately after this last incubation, 100 μL of neutralizing solution was added; each DNA extract was diluted at 1/40 and stored at +4° C. until use. SOD1^G93A gene was determined using genomic fragment with human SOD1 primers (5′-[…]-3′ SEQ ID NO: 1; 5′-[…]-3′ SEQ ID NO:2). The SOD1 primers were diluted at 3 μM in sterile ultrapure water. Briefly, a mix for PCR was prepared with ultrapure water (4 μL per sample), primer at 3 μM (2 μL per sample) and Master Mix (10 μL per sample). In a PCR 96 wells plate, 16 μL of PCR mix was added in each well. 4 μL of each diluted DNA was added according to a plan deposit.
Rat spinal cord motor neurons were cultured as described by Boussicault et al., J Neurosci Res. 2020 December; 98 (12), 2435-50 and Wang et al. Hum. Mol. Genet., 2013 December 1; 22 (23), 4706-19. Pregnant female rats of 14 days of gestation were killed by cervical dislocation. The culture was carried out as described in example 1.
On day 13, culture medium was removed and cultures were exposed to the test compounds: N-(3-(4-(3-(diisobutylamino)propyl)piperazin-1-yl)propyl)-1H-benzo[d]imidazol-2-amine) sesqui-succinate salt Form 1, in comparison to Riluzole and Edaravone, and glutamate (5 μM) for 20 min at 37° C. in defined medium. After glutamate exposure, the cultures were washed with defined medium at 37° C. then placed in fresh culture medium containing the test compound, Riluzole or Edavarone for additional 48h.
• The end point evaluation was carried out as described in example 1.
(§1) The statistical analysis was carried out as described in example 1.

people with ALS = conditions: injected intravenously; small subset of people with ALS; phase 3; cited from earlier work
[2] = tested on: neuromuscular junctions in co-culture of human myoblasts and rat spinal cord explants; assay: Co-culture of human myoblasts and rat spinal cord explants (neuromuscular junctions) injured with glutamate; assay type: cell-based; conditions: glutamate 60 μM 20 min, 48 h incubation
[3] = tested on: Rat spinal cord motor neurons (MN); assay: Rat primary spinal cord motor neurons injured with glutamate, 24 h pre-incubation + 24 h post-injury incubation; assay type: cell-based
Protocol: The culture was carried out as described in example 1.
On day 12 of culture, primary motor neurons were treated with the sesqui-succinate Form 1 for 24 hours. On day 13 of culture, glutamate was added to a final concentration of 5 µM diluted in control medium in presence of the sesqui-succinate salt Form 1 for 20 min. After 20 min, glutamate was washed and fresh culture medium with the sesqui-succinate Form 1 was added for an additional 24 hours.
The end point evaluation was carried out as described in example 1.
as §1

[4] = tested on: Rat spinal cord motor neurons (MN); assay: Rat primary spinal cord motor neurons injured with glutamate, 48 h incubation with compound; assay type: cell-based; conditions: glutamate 5 μM 20 min
Protocol: Rat spinal cord motor neurons (MN) were cultured as previously described by Boussicault et al., J Neurosci Res. 2020 December; 98 (12), 2435-50 and Wang et al. Hum. Mol. Genet., 2013-12-1; 22 (23), 4706-19. Pregnant female rats of 14 days gestation (Rats Wistar; Janvier Labs France) were killed using a deep anesthesia with CO2 chamber followed by cervical dislocation. Then, embryos (E14) were removed from the uterus and immediately placed in ice-cold L15 Leibovitz medium with a 2% penicillin (10,000 U/mL) and streptomycin (10 mg/mL) solution (PS) and 1% bovine serum albumin (BSA). Spinal cords were removed and placed in ice-cold medium of Leibovitz (L15). Spinal cords were treated for 20 min at 37° C. with a trypsin-Ethylenediaminetetraacetic acid (EDTA) solution at a final concentration of 0.05% trypsin and 0.02% EDTA. The dissociation was stopped by the addition of Dulbecco's modified Eagle's medium (DMEM) with 4.5 g/liter of glucose, containing DNAse I grade II (final concentration 0.5 mg/mL) and 10% fetal calf serum (FCS). Cells were mechanically dissociated by three forced passages through the tip of a 10-mL pipette. Cells were then centrifuged at 515×g for 10 min at +4° C. The supernatant was discarded, and the pellet was resuspended in a defined culture medium consisting of Neurobasal medium with a 2% solution of B27 supplement, 2 mmol/liter of L-glutamine, 2% of PS solution, and 10 ng/ml of brain-derived neurotrophic factor (BDNF). Viable cells were counted in a Neubauer cytometer, using the trypan blue exclusion test. The cells were seeded at a density of 20,000 per well in 96-well plates precoated with poly-L-lysine and cultured at 37° C. in an air (95%)-CO2 (5%) incubator. The medium was changed every 2 days.
On day 13 of culture, glutamate was added to a final concentration of 5 μM diluted in control medium in presence of the sesqui-succinate Form 1 for 20 min. After 20 min, glutamate was washed and fresh culture medium with the sesqui-succinate Form 1 was added for 48 hours.
After 15 days of culture (48h after the glutamate injury), the cell culture supernatant was collected and the spinal cord MNs were fixed by a cold solution of ethanol (95%) and acetic acid (5%) for 5 min at −20° C. for immunostaining. Cells were washed twice in PBS. Cell membranes were permeabilized and non-specific sites were blocked with a solution of PBS containing 0.1% of saponin and 1% FCS for 15 min at room temperature. Then, cells were incubated for 2 hours with: • a) mouse monoclonal antibody anti-microtubule associated protein 2 (MAP-2) at dilution of 1/400 in PBS containing 1% fetal calf serum and 0.1% of saponin. This antibody binds specifically MAP-2 present in cell bodies and neurites of all MNs. […] Cytoplasmic localization of TDP43 was investigated.
Nuclei of neurons were counterstained with the fluorescent dye (Hoechst).
For each condition, 30 pictures (representative of the whole well area) per well were automatically taken using ImageXpress (Molecular Devices) with 20× magnification. All images were taken under the same conditions (exposition time, gain and laser intensity). Analysis of different endpoints, were automatically performed using Custom Module Editor (Molecular Devices). Motoneurons (MAP-2) were distinguished from interneurons (staining MAP-2) using the following morphological criteria: a cell body diameter […] and the presence of a minimum of three neuritic processes (Ferraiuolo et al. Brain 2011:134; 2627-2641).
The endpoints were: • survival of MNs (MAP-2 staining number of MNs) • neurite network of MNs (MAP-2 staining, total neurite length expressed in μm) • cytoplasmic TDP43 (extranuclear, eTDP43) in MAP-2 positive MNs (overlapping between MAP-2 and cytoplasmic TDP-43 in μm^2). Results are expressed as the ratio of the overlapping MAP-2/TDP-43 per number of MNs.
All values are expressed as mean+/−SEM. Statistical analyses were performed using one-way ANOVA followed by PLSD Fisher test. […]

[5] = 30 nM to 300 nM, 24 h pre-incubation + 24 h incubation
[6] = 30 nM to 300 nM, 48 h incubation

For `CC1=NN(c2ccccc2)C(=O)C1` [Edaravone, reference compound], the “Protective effects of reference drugs after glutamate injury” value ([1]; FIG. 9) is listed as “protective effects” and the “Decline of ALS Functional Rating Scale-Revised score compared with placebo” value (people with ALS) is listed as “significantly smaller decline”.
With `Nc1nc2ccc(OC(F)(F)F)cc2s1` [Riluzole, reference compound] the “Protective effects of reference drug after glutamate injury” value ([2]; concentration not given, FIG. 10) was “protective effects” and the “Protective effects of reference drugs after glutamate injury” value ([1]; FIG. 9) was “protective effects”.
With “N-(3-(4-(3-(diisobutylamino)propyl)piperazin-1-yl)propyl)-1H-benzo[d]imidazol-2-amine sesqui-succinate salt [sesqui-succinate salt Form 1]” the “Neuroprotective effects on neuromuscular junctions and neurite network” value ([2]; 300 nM) was “neuroprotective effects on a dose-dependent manner”, the “Number of NMJs” value ([2]; 300 nM, versus glutamate, FIG. 10A) was “increased” and the “Total area of NMJs” value ([2]; 300 nM, versus glutamate, FIG. 10B) was “increased”. The “Total MNs neurite network (NFH)” value ([2]; 300 nM, versus glutamate, FIG. 10C) was “increased”, the “Protective effects in comparison to Riluzole” value [2] was “comparable to those of Riluzole” and the “Effect on motor neuron survival compared to the glutamate condition” value [3, 5] was “positive and significant effect”. The “Effect on neurite network after glutamate damage” value [3, 5] was “able to protect the neurite network”, the “Reduction of abnormal distribution of TDP-43 (extranuclear TDP-43)” value ([3]; 30 nM to 300 nM, 24 h pre-incubation + 24 h incubation, glutamate alone mean 139% of control, FIG. 8C) was “up to 14%” and the “Neurite network integrity, mean, percentage of control” value ([3]; 300 nM (maximal effect), 24 h pre-incubation + 24 h incubation, glutamate alone mean 60%, FIG. 8B) was 81%. The “Motor neuron survival, mean, percentage of control” value ([3]; 300 nM (maximal effect), 24 h pre-incubation, glutamate 5 µM 20 min, 24 h post-injury incubation, glutamate alone mean 62%, FIG. 8A) was 79%, the “Protective effect on neuronal survival, dose relation” value ([1]; 3 nM to 100 nM) was “dose-dependent” and the “Protective effect on the distribution of TDP-43, dose relation” value ([1]; 3 nM to 100 nM) was “dose-dependent”. For the same compound, the “Neuroprotection (number of MNs, neurite network, TDP-43 distribution) after glutamate injury” value ([1]; 3 nM to 100 nM, FIG. 9) was “neuroprotective”, the “Protective effects in comparison to Riluzole and Edaravone” value ([1]; 100 nM) was “comparable to those of Riluzole or Edaravone” and the “Motor neuron survival (number of MAP-2 positive MNs), mean, percentage of control” value ([4]; 30 nM (maximal effect), then 48 h with compound, glutamate alone mean 58%, FIG. 7A) was 79%. For the same compound, the “Effect on motor neuron survival compared to the glutamate condition” value [4, 6] was “positive and significant effect”, the “Effect on neurite network after glutamate injury” value [4, 6] was “able to improve the neurite network” and the “Neurite network integrity (MAP-2 total neurite length), mean, percentage of control” value ([4]; 100 nM (maximal effect), 48 h incubation, glutamate alone mean 62%, FIG. 7B) was 77%. For the same compound, the “Reduction of accumulation of TDP-43 in the cytoplasm (extranuclear TDP-43)” value ([4]; 300 nM, 48 h incubation, glutamate alone mean 135% of control, FIG. 7C) was “up to 17%” and the “Effect on accumulation of TDP-43 in the cytoplasm (extranuclear TDP-43)” value ([4]; 30 to 300 nM, 48 h incubation) was “significantly reduce”.
